The target of data set [1] is Replicase polyprotein 1ab (Severe acute respiratory syndrome coronavirus 2) (UniProt P0DTD1). Kind of data set: Inhibition of SARS-CoV-2 3CLPro using DabcylKNSTLQSGLRK-Edans as substrate at 50 uM preincubated for 30 mins followed by substrate addition measured after 20 mins by FRET assay relative to control. Particulars: time 50.0 min.
The target in data set [2] is T1, Replicase polyprotein 1ab (Severe acute respiratory syndrome coronavirus 2, UniProt P0DTD1).
The subject of data set [3] is RAW264.7. Put plainly: Anti-inflammatory activity against mouse RAW264.7 cells assessed as inhibition of LPS-induced NO production at 10 uM preincubated for 1 hr followed by LPS treatment measured after 24 hrs relative to control. To be noted: time 25 hrs. Type of data set: functional.
A short description of data set [4]: Cytotoxicity against mouse RAW264.7 cells assessed as cell viability at 10 uM incubated for 24 hrs by CCK8 assay relative to control. The format is toxicity, cell-based. To be noted: read-out: Activity.
A short description of data set [5]: Cytotoxicity against human Huh-7 cells harboring viral replicon/EGFP/Neo genes assessed as cell viability at 5 uM incubated for 24 hrs by Cell Titer Glo assay relative to control. Type of data set: toxicity, cell-based. To be noted: read-out: Activity.
The target of data set [6] is Replicase polyprotein 1ab (Severe acute respiratory syndrome coronavirus 2) (UniProt P0DTD1). Kind of data set: Inhibition of SARS-CoV-2 3CLPro using DabcylKNSTLQSGLRK-Edans as substrate at 5 uM preincubated for 30 mins followed by substrate addition measured after 20 mins by FRET assay relative to control. Particulars: time 50.0 min.
A short description of data set [7]: Cytotoxicity against human Huh-7 cells harboring viral replicon/EGFP/Neo genes assessed as cell viability incubated for 24 hrs by Cell Titer Glo assay. The format is toxicity, cell-based.
The nature of data set [8]: Cytotoxicity against mouse RAW264.7 cells assessed as cell viability at 50 uM incubated for 24 hrs by CCK8 assay relative to control. The format is toxicity, cell-based. To be noted: read-out: Activity.
For data set [9], the system named is RAW264.7. Put plainly: Anti-inflammatory activity against mouse RAW264.7 cells assessed as inhibition of LPS-induced NO production at 1 uM preincubated for 1 hr followed by LPS treatment measured after 24 hrs relative to control. The format is functional. To be noted: time 25 hrs.
Data set [10] in a line: Cytotoxicity against mouse RAW264.7 cells assessed as cell viability at 1 uM incubated for 24 hrs by CCK8 assay relative to control. Type of data set: toxicity, cell-based. Particulars: read-out: Activity.
A short description of data set [11]: Cytotoxicity against human Huh-7 cells harboring viral replicon/EGFP/Neo genes assessed as cell viability at 50 uM incubated for 24 hrs by Cell Titer Glo assay relative to control. The format is toxicity, cell-based. Particulars: read-out: Activity.
The target of data set [12] is T2, Chymotrypsin-C (Homo sapiens) (UniProt Q99895).
T2 sequence (whole entry): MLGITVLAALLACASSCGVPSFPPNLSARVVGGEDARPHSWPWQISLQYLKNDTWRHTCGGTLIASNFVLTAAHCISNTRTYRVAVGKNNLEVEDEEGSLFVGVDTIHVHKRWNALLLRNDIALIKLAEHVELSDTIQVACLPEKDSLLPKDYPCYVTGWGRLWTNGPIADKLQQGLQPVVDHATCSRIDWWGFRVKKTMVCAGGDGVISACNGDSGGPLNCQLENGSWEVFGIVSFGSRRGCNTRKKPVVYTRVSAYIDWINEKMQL
Kind of data set: Inhibition of human CTRC using succinyl-Ala-Ala-Pro-Phe-p-nitroanilide as substrate at 10 uM preincubated for 30 mins followed by trypsin treatment for 1 hr and subsequent addition of substrate by absorbance based assay.

Data set [13] addresses T1, Replicase polyprotein 1ab. Put plainly: Inhibition of SARS-CoV-2 3CLPro using DabcylKNSTLQSGLRK-Edans as substrate measured after 60 mins by FRET assay.
For data set [14], the target named is Replicase polyprotein 1ab (Severe acute respiratory syndrome coronavirus 2) (UniProt P0DTD1). Kind of data set: Covalent binding affinity to SARS-CoV-2 3CLPro at 90 uM by MS analysis.
Data set [15] addresses Transmembrane protease serine 2 (Homo sapiens) (UniProt O15393). Put plainly: Inhibition of TMPRSS2 (unknown origin) using Boc-GIn-Ala-Arg-AMC as substrate at 10 uM preincubated for 60 mins followed by substrate addition by fluorescence based assay.
Data set [16] addresses Procathepsin L (Homo sapiens) (UniProt P07711). Put plainly: Inhibition of CTSL (unknown origin) using Z-Phe-ArgAMC as substrate at 10 uM preincubated for 30 mins followed by substrate addition by fluorescence based analysis.
For data set [17], the target named is Cathepsin B (Homo sapiens) (UniProt P07858). Kind of data set: Inhibition of CTSB (unknown origin) using Z-Phe-ArgAMC as substrate at 10 uM preincubated for 30 mins followed by substrate addition by fluorescence based analysis.
For data set [18], the target named is T1, Replicase polyprotein 1ab. Kind of data set: Inhibition of SARS-CoV-2 3CLPro using DabcylKNSTLQSGLRK-Edans as substrate measured after 3 mins by FRET assay.
The next data set deals with HOS-TE85. Kind of data set: Inhibition of cell proliferation of human MNNG/HOS cells at 10 uM. Type of data set: functional, cell-based.
A further data set relates to 143B. Put plainly: Inhibition of cell proliferation of human 143B cells at 10 uM. The format is functional, cell-based.
The next data set relates to SJSA-1. Put plainly: Inhibition of cell proliferation of human SJSA-1 cells at 10 uM. Type of data set: functional, cell-based.
For a further data set, the system named is MGC-803. Put plainly: Inhibition of cell proliferation of human MGC-803 cells at 10 uM. Type of data set: functional, cell-based.
The target of data set [19] is T1, Replicase polyprotein 1ab. Kind of data set: (§1) Mixed inhibition of SARS-CoV-2 3CLPro using DabcylKNSTLQSGLRK-Edans as substrate by FRET assay.
Data set [20] concerns the target Replicase polyprotein 1ab (Severe acute respiratory syndrome coronavirus 2) (UniProt P0DTD1). The description is as §1.
In a further data set the test system is KHOS/NP. Kind of data set: Inhibition of cell proliferation of human KHOS/NP cells at 10 uM. The format is functional, cell-based.
The next data set has as its system GES1. Kind of data set: Inhibition of cell proliferation of human GES1 cells at 10 uM. The format is functional, cell-based.

Structures are written as SMILES. Calls of active or inactive are those of the source. No cut-off for these calls is given here.

Transmembrane protease serine 2 (Homo sapiens), sequence (O15393 1-255 limits assumed): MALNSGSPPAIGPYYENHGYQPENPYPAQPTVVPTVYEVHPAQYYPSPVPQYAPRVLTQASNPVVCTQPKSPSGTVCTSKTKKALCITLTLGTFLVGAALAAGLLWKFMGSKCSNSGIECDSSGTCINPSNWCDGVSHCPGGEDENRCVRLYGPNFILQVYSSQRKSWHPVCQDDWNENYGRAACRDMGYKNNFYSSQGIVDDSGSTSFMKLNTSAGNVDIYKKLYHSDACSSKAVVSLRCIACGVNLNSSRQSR
Transmembrane protease serine 2 (Homo sapiens), sequence (O15393 256-492 limits assumed): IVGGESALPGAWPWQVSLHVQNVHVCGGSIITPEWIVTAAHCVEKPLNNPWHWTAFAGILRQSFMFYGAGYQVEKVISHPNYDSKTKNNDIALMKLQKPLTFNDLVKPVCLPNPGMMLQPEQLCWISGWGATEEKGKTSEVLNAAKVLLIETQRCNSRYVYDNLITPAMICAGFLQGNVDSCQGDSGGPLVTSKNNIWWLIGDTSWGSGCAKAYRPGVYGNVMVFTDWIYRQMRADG
Procathepsin L (Homo sapiens), sequence (P07711 114-333 limits assumed): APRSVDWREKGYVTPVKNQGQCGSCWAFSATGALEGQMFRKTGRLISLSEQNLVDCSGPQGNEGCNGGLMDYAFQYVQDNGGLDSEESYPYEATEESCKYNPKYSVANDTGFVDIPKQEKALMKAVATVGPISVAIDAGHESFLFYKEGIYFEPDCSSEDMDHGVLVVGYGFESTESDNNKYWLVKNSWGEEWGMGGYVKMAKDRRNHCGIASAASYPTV

As to `CC(=O)Oc1c(Cl)c(/C=C/C(=O)c2ccc(F)cc2)c(Cl)c(OC(C)=O)c1OC(C)=O`, the inhibition in data set [1] worked out at 1%; in data set [6], 1.1%. This compound had an IC50 in data set [2] of 247 nM. Besides, in the data set on RAW264.7 [3], the inhibition at 10 µM turned out to be 85.2%. Besides, the viability at 24 h, 10 µM in data set [4] amounted to 97.5%. Further, the viability at 24 h, 5 µM in data set [5] came out at 111%. Besides, in data set [7], the CC50 at 24 h is more than 50000 nM. The figures for the viability at 24 h, 50 µM in data set [8] and in data set [11] were 54.1% and 62%, respectively. The inhibition at 1 µM in the data set with RAW264.7 [9] was determined as 37.4%. Moreover, in data set [10], the viability at 24 h, 1 µM was found to be 93.8%.

As to `O=C(CCc1cc(O)c(O)c(O)c1)c1ccc(F)cc1`, the results for the inhibition in data set [1] and in data set [6] were 6.3% and 21.4%, respectively. Further, the midpoint of inhibition in data set [2], the IC50, lay at 1770 nM. Besides, the inhibition at 10 µM in the data set with RAW264.7 [3] was found to be 54.1%. For the same compound, in data set [4], the viability at 24 h, 10 µM worked out at 103%. Moreover, the viability at 24 h, 5 µM in data set [5] was 110%. Besides, the CC50 at 24 h in data set [7] was more than 100000 nM. Also, the viability at 24 h, 50 µM in data set [8] was 87.6%; in data set [11], 92.7%. Further, the inhibition at 1 µM with RAW264.7 [9] came to 20.8%. Further, the viability at 24 h, 1 µM in data set [10] amounted to 117%.

`O=C(/C=C/c1cc(O)c(O)c(O)c1)c1ccc(F)cc1`: the results for the inhibition in data set [1] and in data set [6] were 0.5% and 2.5%, respectively. Besides, the IC50 turned out to be 261 nM in data set [2], 93.4 nM in [13] and 461 nM in data set [18]. Besides, the inhibitory constant (Ki) in [2] was determined as 800 nM. Moreover, in the data set on RAW264.7 [3], the inhibition at 10 µM came to 68.6%. For the same compound, the inhibition result in data set [12] is “Active”. The viability at 24 h, 10 µM in [4] is 109%. For the same compound, in data set [14], the outcome was Active. The viability at 24 h, 5 µM in [5] came out at 95.2%. Further, the inhibition entry in data set [15], in [16] and in [17] was “inactive” in each case. Further, in data set [7], the CC50 at 24 h was more than 50000 nM. The results for the viability at 24 h, 50 µM in data set [8] and in data set [11] were 100% and 63.4%, respectively. Further, the inhibition at 1 µM in the data set on RAW264.7 [9] was found to be 4.2%. For the same compound, in data set [10], the viability at 24 h, 1 µM amounted to 116%.

For `O=C(/C=C/c1c(Cl)c(O)c(O)c(O)c1Cl)c1c(Cl)c(O)c(O)c(O)c1Cl`, the inhibition stood at 0.2% in [1] and 0% in data set [6]. Further, in [2], half-maximal inhibition (IC50) was put at 115 nM. The inhibition at 10 µM in the data set on RAW264.7 [3] came to 76.9%. In addition, the viability at 24 h, 10 µM in data set [4] worked out at 37%. Moreover, in [5], the viability at 24 h, 5 µM is 111%. In addition, the values for the viability at 24 h, 50 µM in data set [8] and in data set [11] were 82.4% and 99.3%, respectively. The inhibition at 1 µM in the data set on RAW264.7 [9] came to 22.9%. Moreover, the viability at 24 h, 1 µM in data set [10] is 51.2%.

Take `O=C(/C=C/c1cc(O)c(O)c(O)c1Cl)c1ccc(F)cc1`: the inhibition in [1] and in data set [6] was 1.1% in each case. Moreover, the IC50 in [2] is 429 nM. In addition, the inhibition at 10 µM with RAW264.7 [3] amounted to 72.8%. Further, the viability at 24 h, 10 µM in [4] turned out to be 110%. The viability at 24 h, 5 µM in data set [5] came out at 106%. For the same compound, the values for the viability at 24 h, 50 µM in data set [8] and in [11] were 104% and 71.4%, respectively. For the same compound, the inhibition at 1 µM with RAW264.7 [9] is -4.2%. Further, the viability at 24 h, 1 µM in [10] came to 111%.

As to `O=C(/C=C/c1c(Cl)c(O)c(O)c(O)c1Cl)c1ccc(F)cc1`, the inhibition result (with HOS-TE85; in the data set on 143B; in the data set on SJSA-1; in [16]; in data set [17]; in the data set on MGC-803) was “inactive” each time. Also, the inhibition result in the data set on KHOS/NP and with GES1 was “inactive” throughout. For the same compound, the inhibition was -0.1% in [1], 0.8% in data set [6] and “Dose-dependent-effect; The Result Suggests That Compound May Bind To Both Enzymatic Active Site And Allosteric Sites” in data set [20]. The results for the IC50 in data set [2], in data set [13] and in data set [18] were 83.2 nM, 110 nM and 211 nM, respectively. Also, in the data set on RAW264.7 [3], the inhibition at 10 µM amounted to 81.1%. In addition, the inhibition result in [12] and in [15] was “Active” throughout. In addition, the viability at 24 h, 10 µM in data set [4] is 48.6%. The result in data set [14] was inactive. In [5], the viability at 24 h, 5 µM came out at 104%. The affinity in data set [19] corresponds to a Ki of 200 nM. Besides, in data set [7], the CC50 at 24 h was found to be 41200 nM. The values for the viability at 24 h, 50 µM in data set [8] and in data set [11] were 114% and 50%, respectively. Also, in the data set on RAW264.7 [9], the inhibition at 1 µM is 29.1%. Further, the viability at 24 h, 1 µM in data set [10] came out at 93.7%.

For the compound `O=C(/C=C/c1c(Cl)c(O)c(O)c(O)c1Cl)c1ccc(F)cc1Cl`, the inhibition in data set [1] worked out at 1.6%; in [6] it was 1.1%. The IC50 in data set [2] worked out at 310 nM. Further, the inhibition at 10 µM in the data set with RAW264.7 [3] is 87.3%. For the same compound, the viability at 24 h, 10 µM in [4] was determined as 122%. The viability at 24 h, 5 µM in data set [5] is 104%. In addition, the viability at 24 h, 50 µM came to 52.4% in data set [8] and 56.9% in data set [11]. Moreover, the inhibition at 1 µM in the data set with RAW264.7 [9] was determined as 16.6%. Besides, the viability at 24 h, 1 µM in data set [10] amounted to 118%.

The record behind these values is ChEMBL document CHEMBL6078649, “Discovery of Chalcone Derivatives as Bifunctional Molecules with Anti-SARS-CoV-2 and Anti-inflammatory Activities” (J Nat Prod, 2024).
